By pIC50 is commonly meant the IC50 on a negative log10 scale, so that one unit is a factor of ten.

This note sets out measurements from patent US20080194619A1, “Anti-Hiv Quinuclidine Compounds” (priority 2004, published 2008).

pIC50: −log10 of the molar value. Where two headings read alike, the source gives them in different places.

One series relates to HIV-1 IIIB. The series can be described thus: GenPhar AV-Finder-HIV Drug Discovery Assay, HIV-1 IIIB replication in HeLa indicator cells. It is filed as cell-based. The note with it: for pIC50: read-out: IC50 of HIV replication inhibition. The source says: In order to study the viral replication in vitro, the GenPhar AV-Finder™-HIV Drug Discovery Assay was used, a novel technology that consists of two components: (1) a cloned, continuous-passage HeLa cell line containing an HIV-1 tat-activated molecular switch and a Green Fluorescent Protein reporter gene and (2) a recombinant adenovirus (rAd) vector containing the genes for all three of the HIV-1 receptor/co-receptors (CD4, CXCR4, and CCR5) to transduce into HeLa cells and convert them into highly susceptible HIV-1 indicator cells for use in the assay. The indicator cells over-express the HIV-1 receptor genes and are readily infected with any HIV-1 strain or isolate. […] Infected cells fluoresce brightly so that the inhibition of virus replication by potential antiviral drugs can be readily detected and quantified using standard laboratory plate reader technology.
(§1) Detector plates are set up at day 1 by adding HeLa cells (3000/well) to the adenovirus AD-3R in DMEM containing CCS in 96-well plates and incubated at 37° C. under 95% humidity and 5% CO2 for 2 days. […] At day 4, the medium was replaced by fresh medium containing the corresponding concentration of the compounds of interest. The infectivity was assessed by measuring the fluorescence on each well at day 7 ([…]). […] At day 5, the medium was replaced by fresh medium containing the corresponding concentration of compounds of interest and the infectivity was assessed by measuring the fluorescence on each well at day 8. Results are expressed as percentage of inhibition of the viral replication.
(4-amino-phenyl)-(1-aza-bicyclo[2.2.2]oct-4-yl)-methanone (FIG. 1) was used either alone dissolved in water (SP003) or in an aqueous formulation (SP003A) containing zinc sulfate heptahydrate and ascorbic acid at the ratio of 26.6/1/1.6 (for example 200 mg SP003 with 7.5 mg of zinc sulfate heptahydrate and 12.5 mg of ascorbic acid; Xu, J. et al., J. Pharmacol. Exper. Ther., (2003) 307:1148-1157.

The next series has as its system HIV MDR 769 strain. The series can be described thus: AV-Finder-HIV assay, multi-drug resistant HIV MDR 769 strain replication in HeLa cells. In kind it is cell-based.
Description: In order to study the viral replication in vitro, the GenPhar AV-Finder™-HIV Drug Discovery Assay was used, a novel technology that consists of two components: (1) a cloned, continuous-passage HeLa cell line containing an HIV-1 tat-activated molecular switch and a Green Fluorescent Protein reporter gene and (2) a recombinant adenovirus (rAd) vector containing the genes for all three of the HIV-1 receptor/co-receptors (CD4, CXCR4, and CCR5) to transduce into HeLa cells and convert them into highly susceptible HIV-1 indicator cells for use in the assay. The indicator cells over-express the HIV-1 receptor genes and are readily infected with any HIV-1 strain or isolate. All HIV-1 strains tested thus far, regardless of co-receptor preference, and all subtypes or classes of HIV-1 will infect these indicator cells. Infected cells fluoresce brightly so that the inhibition of virus replication by potential antiviral drugs can be readily detected and quantified using standard laboratory plate reader technology.
as §1

The subject of another series is HeLa cells. The series can be described thus: MTT cytotoxicity assay (mitochondrial integrity). A general note: Tetrazolium assays rely on reduction of a dye to a coloured formazan, in cell work by metabolically active cells.

Consider `Cc1cn([C@H]2C[C@H](N=[N+]=[N-])[C@@H](CO)O2)c(=O)[nH]c1=O` [AZT, reference compound], for which the “curve plateau, inhibition of viral replication” value with HIV-1 IIIB (24 hours pre-medication) is “around 40%”. The pIC50 is 7.52 with HIV-1 IIIB (48 hours pretreatment, FIG. 4) and 3.79 in the series on HeLa cells (read-out: toxicity IC50 (MTT cytotoxicity assay)). In addition, the “inhibition of HIV MDR 769 strain replication (in words)” value in the series with HIV MDR 769 strain (without pre-medication, FIG. 5) is on record as “not effective”.

As for `Nc1ccc(C(=O)C23CCN(CC2)CC3)cc1` [SP003, (4-Amino-phenyl)-(1-aza-bicyclo[2.2.2]oct-4-yl)-methanone], the “inhibition of HIV replication” value in the series on HIV-1 IIIB (48 hours pretreatment, FIG. 4) amounted to 50%. For the same compound, the pIC50 in the series on HIV-1 IIIB (Human immunodeficiency virus 1, IIIB, HeLa, 48 hours pretreatment, FIG. 4) is 10.52; in the series on HIV MDR 769 strain (Human immunodeficiency virus 1, HeLa, read-out: IC50 of HIV MDR 769 viral replication inhibition), 11.00. The “inhibition of HIV-1 IIIB viral replication (in words)” value in the series with HIV-1 IIIB (no pre-medication, HeLa cells, FIG. 2) is “higher efficiency than the classical antiviral agent ddI”. Besides, in the series on HIV-1 IIIB (no pre-medication, concentrations in the nanomolar range), the “inhibition of HIV-1 IIIB replication” value is “up to 50%”. The “inhibition of HIV MDR 769 viral replication” value in the series on HIV MDR 769 strain (without pre-medication, FIG. 5) is reported as 60%. Besides, the “cell toxicity (MTT cytotoxicity assay)” value in the series with HeLa cells (all concentrations tested, up to 100 μM) was “devoid of cell toxicity”.

`O=c1[nH]cnc2c1ncn2[C@H]1CC[C@@H](CO)O1` [ddI]: the pIC50 with HeLa cells is 4.05.
